This passage reports IC50 and viability, T/C results from PubChem BioAssay AID2060899 (Molecular Pharmacology Branch, DTP, NCI, 2025).

The test has as its system 565726-208-R1-J5-PDC complex spheroids, growth inhibition. The test can be described thus: Anticancer human tumor 565726-208-R1-J5-PDC patient-derived pancreatic adenocarcinoma cell line growth inhibition [RAS]. Conditions: for viability, T/C: stronger effect = lower value. In outline:
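Tumour cells grown as complex spheroids with HUVEC endothelial cells and mesenchymal stem cells, treated with RAS pathway inhibitor combinations. Each agent spans half-log steps from near clinical Cmax, or 10 microM where Cmax is unknown.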

A word on the IC50: it is the concentration needed to halve the response being measured. For orientation: viability, T/C means the ratio of treated to control.
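Also: spheroids exposed to compounds for seven days before readout.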
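For viability, T/C in this document: 100% = DMSO vehicle control viability.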

As for `CC1(C)CCC(Nc2ncc(C(F)(F)F)c(-c3c[nH]c4c(P(C)(C)=O)c(C#N)ccc34)n2)CN1` (stereo not given) + CCn1c(-c2cccnc2C(C)OC)c2c3cc(ccc31)N1CCOC(CC(NC(=O)C(C(C)C)N(C)C(=O)C3(F)CCN(C(=O)C#CC(C)(C)N(C)C)CC3)C(=O)N3CCCC(N3)C(=O)OCC(C)(C)C2)C1, the IC50 was 0.0039 µM (curve of first compound, second compound 0.000949 µM); 0.00409 µM (curve of first compound, second compound 0.003 µM); 0.00398 µM (curve of first compound, second compound 0.00949 µM); 0.00325 µM (curve of first compound, second compound 0.03 µM); 0.00254 µM (curve of first compound, second compound 0.0949 µM); 0.00109 µM (curve of first compound, second compound 0.3 µM). Moreover, the viability, T/C (second compound 0.000949 µM, first compound 0.000949 µM) is 86%; the viability, T/C (second compound 0.000949 µM, first compound 0.003 µM) was 54%; the viability, T/C (second compound 0.000949 µM, first compound 0.00949 µM) was 37.6%; the viability, T/C (second compound 0.000949 µM, first compound 0.03 µM) is 32.1%; the viability, T/C (second compound 0.000949 µM, first compound 0.0949 µM) was 32.2%; the viability, T/C (second compound 0.000949 µM, first compound 0.3 µM) is 29.5%. Further, the viability, T/C by setting is: (second compound 0.003 µM, first compound 0.000949 µM) 89%; (second compound 0.003 µM, first compound 0.003 µM) 55%; (second compound 0.003 µM, first compound 0.00949 µM) 36.5%; (second compound 0.003 µM, first compound 0.03 µM) 29.2%; (second compound 0.003 µM, first compound 0.0949 µM) 29.5%; (second compound 0.003 µM, first compound 0.3 µM) 28.7%. Further, the viability, T/C is 83.2% (second compound 0.00949 µM, first compound 0.000949 µM); 55.4% (second compound 0.00949 µM, first compound 0.003 µM); 33.5% (second compound 0.00949 µM, first compound 0.00949 µM); 27.9% (second compound 0.00949 µM, first compound 0.03 µM); 26.9% (second compound 0.00949 µM, first compound 0.0949 µM); 27.6% (second compound 0.00949 µM, first compound 0.3 µM). Besides, the viability, T/C is, setting by setting: (second compound 0.03 µM, first compound 0.000949 µM) 76%; (second compound 0.03 µM, first compound 0.003 µM) 50.9%; (second compound 0.03 µM, first compound 0.00949 µM) 36.4%; (second compound 0.03 µM, first compound 0.03 µM) 29%; (second compound 0.03 µM, first compound 0.0949 µM) 28.6%; (second compound 0.03 µM, first compound 0.3 µM) 29.3%. Moreover, the viability, T/C is, setting by setting: (second compound 0.0949 µM, first compound 0.000949 µM) 69.3%; (second compound 0.0949 µM, first compound 0.003 µM) 46.7%; (second compound 0.0949 µM, first compound 0.00949 µM) 30%; (second compound 0.0949 µM, first compound 0.03 µM) 26.9%; (second compound 0.0949 µM, first compound 0.0949 µM) 29%; (second compound 0.0949 µM, first compound 0.3 µM) 32.9%. Further, the viability, T/C (second compound 0.3 µM, first compound 0.000949 µM) is 52%; the viability, T/C (second compound 0.3 µM, first compound 0.003 µM) is 35.6%; the viability, T/C (second compound 0.3 µM, first compound 0.00949 µM) was 27.4%; the viability, T/C (second compound 0.3 µM, first compound 0.03 µM) was 26.7%; the viability, T/C (second compound 0.3 µM, first compound 0.0949 µM) was 27.8%; the viability, T/C (second compound 0.3 µM, first compound 0.3 µM) was 26.5%.
For `CC1(C)CCC(Nc2ncc(C(F)(F)F)c(-c3c[nH]c4c(P(C)(C)=O)c(C#N)ccc34)n2)CN1` (stereo not given), the viability, T/C runs as follows: (compound 0.003 µM) 51.3% [middle of 4 runs]; (compound 0.00949 µM) 37.9% [middle of 4 runs]; (compound 0.03 µM) 31.7% [middle of 4 runs]; (compound 0.0949 µM) 36.9% [middle of 4 runs]; (compound 0.3 µM) 34.4% [middle of 4 runs]. Moreover, the IC50 (curve of compound) was 3.92 nM [middle of 4 runs].
On to `C=CC(=O)N1CCN(c2nc(OCC3CCCN3C)nc3c(F)c(-c4nc(N)cc(C)c4C(F)(F)F)c(Cl)cc23)C(C)C1` (stereo not given), for which the viability, T/C (compound 0.1 µM) was 104% [middle of 12 runs]. Further, the IC50 (compound alone, run of 07/15/2024) is above 1 µM and the IC50 (curve of compound) was above 1 µM.
As for `CCn1c(-c2cc(N3CCN(C)CC3)cnc2C(C)OC)c2c3cc(ccc31)-c1csc(n1)CC(NC(=O)C1CC1C)C(=O)N1CCCC(N1)C(=O)OCC(C)(C)C2` (stereo not given), the viability, T/C (compound 0.000949 µM) was 65% [middle of 8 runs]; the viability, T/C (compound 0.003 µM) is 55.2% [middle of 8 runs]; the viability, T/C (compound 0.00949 µM) was 43.7% [middle of 8 runs]; the viability, T/C (compound 0.03 µM) is 33.3% [middle of 7 runs]; the viability, T/C (compound 0.0949 µM) is 27.4% [middle of 7 runs]; the viability, T/C (compound 0.3 µM) was 24.9% [middle of 8 runs]. The IC50 (compound alone, run of 07/09/2024) is 4 nM [middle of 8 runs].
`CCC(CC)c1cc(NC2CCC(N)C2)n2nccc2n1` (stereo not given) + C=CC(=O)N1CCN(c2nc(OCC3CCCN3C)nc3c(F)c(-c4nc(N)cc(C)c4C(F)(F)F)c(Cl)cc23)C(C)C1: the IC50 by setting is: (curve of first compound, second compound 0.00316 µM) 1.93 µM; (curve of first compound, second compound 0.01 µM) 1.7 µM; (curve of first compound, second compound 0.0316 µM) 1.62 µM; (curve of first compound, second compound 0.1 µM) 1.6 µM; (curve of first compound, second compound 0.316 µM) 1.58 µM; (curve of first compound, second compound 1 µM) 1.72 µM. Moreover, the viability, T/C (second compound 0.00316 µM, first compound 0.0316 µM) is 152%; the viability, T/C (second compound 0.00316 µM, first compound 0.1 µM) was 180%; the viability, T/C (second compound 0.00316 µM, first compound 0.316 µM) was 128%; the viability, T/C (second compound 0.00316 µM, first compound 1 µM) was 110%; the viability, T/C (second compound 0.00316 µM, first compound 3.16 µM) is 1.79%; the viability, T/C (second compound 0.00316 µM, first compound 10 µM) was 2.13%. Besides, the viability, T/C (second compound 0.01 µM, first compound 0.0316 µM) is 166%; the viability, T/C (second compound 0.01 µM, first compound 0.1 µM) is 179%; the viability, T/C (second compound 0.01 µM, first compound 0.316 µM) was 114%; the viability, T/C (second compound 0.01 µM, first compound 1 µM) was 94.6%; the viability, T/C (second compound 0.01 µM, first compound 3.16 µM) is 3.11%; the viability, T/C (second compound 0.01 µM, first compound 10 µM) was 1.95%. Further, the viability, T/C (second compound 0.0316 µM, first compound 0.0316 µM) is 174%; the viability, T/C (second compound 0.0316 µM, first compound 0.1 µM) was 170%; the viability, T/C (second compound 0.0316 µM, first compound 0.316 µM) is 125%; the viability, T/C (second compound 0.0316 µM, first compound 1 µM) was 88.1%; the viability, T/C (second compound 0.0316 µM, first compound 3.16 µM) was 1.53%; the viability, T/C (second compound 0.0316 µM, first compound 10 µM) was 2.03%. Also, the viability, T/C is 221% (second compound 0.1 µM, first compound 0.0316 µM); 184% (second compound 0.1 µM, first compound 0.1 µM); 102% (second compound 0.1 µM, first compound 0.316 µM); 96.2% (second compound 0.1 µM, first compound 1 µM); 1.59% (second compound 0.1 µM, first compound 3.16 µM); 2.52% (second compound 0.1 µM, first compound 10 µM). Besides, the viability, T/C reads like this: (second compound 0.316 µM, first compound 0.0316 µM) 182%; (second compound 0.316 µM, first compound 0.1 µM) 169%; (second compound 0.316 µM, first compound 0.316 µM) 103%; (second compound 0.316 µM, first compound 1 µM) 92.5%; (second compound 0.316 µM, first compound 3.16 µM) 1.41%; (second compound 0.316 µM, first compound 10 µM) 2.15%. Moreover, the viability, T/C runs as follows: (second compound 1 µM, first compound 0.0316 µM) 175%; (second compound 1 µM, first compound 0.1 µM) 176%; (second compound 1 µM, first compound 0.316 µM) 136%; (second compound 1 µM, first compound 1 µM) 92.7%; (second compound 1 µM, first compound 3.16 µM) 1.49%; (second compound 1 µM, first compound 10 µM) 1.88%.
